In US11261186B2, “Biaryl derivative as GPR120 agonist” (LG CHEM, LTD., priority 2014, dated 2022):

Target: T1, hGPR120 (Homo sapiens, UniProt Q5NUL3)
T1 construct: expressed in transfected cells; host or cells: CHO-K1
T1 sequence (Q5NUL3 1-361): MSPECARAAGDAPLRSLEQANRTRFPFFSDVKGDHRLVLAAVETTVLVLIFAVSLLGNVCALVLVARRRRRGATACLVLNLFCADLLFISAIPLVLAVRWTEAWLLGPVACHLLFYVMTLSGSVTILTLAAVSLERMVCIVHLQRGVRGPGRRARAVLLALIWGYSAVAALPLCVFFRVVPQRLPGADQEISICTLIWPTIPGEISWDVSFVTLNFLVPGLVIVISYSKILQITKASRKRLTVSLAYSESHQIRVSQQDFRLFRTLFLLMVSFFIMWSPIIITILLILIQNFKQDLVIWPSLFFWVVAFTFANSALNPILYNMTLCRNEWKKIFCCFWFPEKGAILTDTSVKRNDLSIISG
Assay: Measurement of Activity of GPR120 Agonist (Cell-Based Assay), Calcium 5 dye fluorescence
Conditions: CHO-K1 cells expressing Ga16 and hGPR120
Method in brief: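 CHO-K1 cells co-expressing Gα16 and hGPR120 were seeded, cultured 18 h at 37 °C, then loaded 1 h with Calcium 5 dye. Serially diluted agonists (final 0.5% DMSO) were added and fluorescence read at Ex 485/Em 525 nm, expressed as percent relative to 1% DMSO-only wells.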

SMILES | EC50 [µM]
O=C(O)CCc1ccc2cc(-c3cccnc3OC3CCCC3)ccc2c1 [Example 150, 3-[6-(2-cyclopentyloxy-pyridin-3-yl)-naphthalen-2-yl]-propanoic acid] | < 0.2
CCCSc1ncccc1-c1cc(F)c(N(C)CCCC(=O)O)c(F)c1 [Example 207, 4-{[2,6-difluoro-4-(2-propylsulfanyl-pyridin-3-yl)-phenyl]-methyl-amino}-butyric acid] | < 0.2
O=C(O)C1CC1COc1c(F)cc(-c2cncc(OC3CCC3)n2)cc1F (stereo not drawn) [Example 550, 2-[4-(6-cyclobutoxy-pyrazin-2-yl)-2,6-difluoro-phenoxymethyl]-cyclopropanecarboxylic acid] | < 0.2
COCc1ccc2c(cnn2-c2cc(F)c(OCCCC(=O)O)c(F)c2)c1 [Example 480, 4-[2,6-difluoro-4-[5-(methoxymethyl)indazol-1-yl]phenoxy]butanoic acid] | 2 to 20
CCCSc1ncccc1-c1cc(F)c(N2CCC(CC(=O)O)CC2)c(F)c1 [Example 117, 2-[1-[2,6-difluoro-4-(2-propylsulfanyl-3-pyridyl)phenyl]-4-piperidyl]acetic acid] | < 0.2
O=C(O)CCCSc1c(F)cc(-c2cccc3c2OC2(CCCC2)C3)cc1F [Example 262, 4-(2,6-difluoro-4-spiro[3H-benzofuran-2,1′-cyclopentan]-7-yl-phenylsulfanyl)-butyric acid] | < 0.2
CC(C)Sc1cccc(-c2ccc3c(c2)CCC(CCC(=O)O)S3)n1 (stereo not drawn) [Example 286, 3-[6-(6-isopropylsulfanyl-pyridin-2-yl)-thiochroman-2-yl]-propionic acid] | < 0.2
CCCSc1cccc(-c2cc(F)c(C(C)CCCC(=O)O)c(F)c2)n1 (stereo not drawn) [Example 55, 5-[2,6-difluoro-4-(6-propylsulfanyl-2-pyridyl)phenyl]hexanoic acid] | < 0.2
CC(C)COc1nc(-c2cc(F)c(N3CCC(CC(=O)O)CC3)c(F)c2)ncc1F [Example 597, {1-[2,6-difluoro-4-(5-fluoro-4-isobutoxy-pyrimidin-2-yl)-phenyl]-piperidin-4-yl}-acetic acid] | 0.2 to 2
CN(CCCC(=O)O)c1c(F)cc(-n2ccc3cccc(Cl)c32)cc1F [Example 475, 4-[4-(7-chloroindol-1-yl)-2,6-difluoro-N-methyl-anilino]butanoic acid] | < 0.2
O=C(O)CCC1CCc2cc(-c3cccnc3OCC3CC3)ccc2S1 (stereo not drawn) [Example 279, 3-[6-(2-cyclopropylmethoxy-pyridin-3-yl)-thiochroman-2-yl]-propionic acid] | < 0.2
COCCOc1cc(C)nc(-c2cc(F)c(N3CCC(CC(=O)O)CC3)c(F)c2)n1 [Example 602, (1-{2,6-difluoro-4-[4-(2-methoxy-ethoxy)-6-methyl-pyrimidin-2-yl]-phenyl}-piperidin-4-yl)-acetic acid] | 0.2 to 2
O=C(O)CC1CN(c2c(F)cc(-c3cccc(OCC4CC4)n3)cc2F)C1 [Example 322, 2-[1-[4-[6-(cyclopropylmethoxy)-2-pyridyl]-2,6-difluoro-phenyl]azetidin-3-yl]acetic acid] | < 0.2
Cc1cc(OC2CCC2)nc(-c2cc(F)c(OCC3CC3C(=O)O)c(F)c2)c1 (stereo not drawn) [Example 548, 2-[4-(6-cyclobutoxy-4-methyl-pyridin-2-yl)-2,6-difluoro-phenoxymethyl]-cyclopropanecarboxylic acid] | < 0.2
Cc1cc(OCC2CC2)nc(-c2cc(F)c(OCCCC(=O)O)c(Cl)c2)n1 [Example 396, 4-[2-chloro-4-[4-(cyclopropylmethoxy)-6-methyl-pyrimidin-2-yl]-6-fluoro-phenoxy]butanoic acid] | < 0.2
O=C(O)CC1CCN(c2c(F)cc(-c3cncc(OCC4CC4)n3)cc2F)C1 (stereo not drawn) [Example 580, {1-[4-(6-cyclopropylmethoxy-pyrazin-2-yl)-2,6-difluoro-phenyl]-pyrrolidin-3-yl}-acetic acid] | < 0.2
CC(C)Sc1ncccc1-c1ccc2c(c1)CCC(CCC(=O)O)S2 (stereo not drawn) [Example 270, 3-[6-(2-isopropylsulfanyl-pyridin-3-yl)-thiochroman-2-yl]-propionic acid] | < 0.2
O=C(O)CCCOc1ccc(-c2cccc(OCC3CCC3)n2)cc1F [Example 539, 4-[4-(6-cyclobutylmethoxy-pyridin-2-yl)-2-fluoro-phenoxy]-butyric acid] | 0.2 to 2
O=C(O)CCCSc1ccc(-c2cccc3c2OC2(CCCC2)O3)cc1 [Example 156, 4-(4-spiro[1,3-benzodioxol-2,1′-cyclopentane]-4-ylphenyl)sulfanylbutanoic acid] | 0.2 to 2
O=C(O)CC1CN(c2c(F)cc(-c3cncc(OCC4CC4)n3)cc2F)C1 [Example 335, 2-[1-[4-[6-(cyclopropylmethoxy)pyrazin-2-yl]-2,6-difluoro-phenyl]azetidin-3-yl]acetic acid] | < 0.2

SMILES | EC50 [µM]
O=C(O)CC1CCN(c2c(F)cc(-c3cncc(OC4CCC4)n3)cc2F)C1 (stereo not drawn) [Example 578, {1-[4-(6-cyclobutoxy-pyrazin-2-yl)-2,6-difluoro-phenyl]-pyrrolidin-3-yll}-acetic acid] | < 0.2
O=C(O)CC1CCN(c2c(F)cc(-c3cncc(OCC4CC4)n3)cc2F)CC1 [Example 333, 2-[1-[4-[6-(cyclopropylmethoxy)pyrazin-2-yl]-2,6-difluoro-phenyl]-4-piperidyl]acetic acid] | < 0.2
O=C(O)CCCSc1c(F)cc(-c2cccc3c2OC(F)(F)O3)cc1F [Example 153, 4-[4-(2,2-difluoro-benzo[1,3]dioxol-4-yl)-2,6-difluoro-phenylsulfanyl]-butyric acid] | < 0.2
COc1ccc(-c2cc(F)c(OCCCC(=O)O)c(Cl)c2)cc1OCC1CC1 [Example 407, 4-(5-chloro-3′-cyclopropylmethoxy-3-fluoro-4′-methoxy-biphenyl-4-yloxy)-butyric acid] | < 0.2
O=C(O)CC1CCN(c2c(F)cc(-c3nccc(Oc4ccc(Cl)cc4)n3)cc2F)C1 (stereo not drawn) [Example 509, 2-[1-[4-[4-(4-chlorophenoxy)pyrimidin-2-yl]-2,6-difluoro-phenyl]-pyrrolidin-3-yl]acetic acid] | 0.2 to 2
O=C(O)CC1CCN(c2c(F)cc(-c3cccc(OC4CCC4)n3)cc2F)CC1 [Example 294, 2-[1-[4-[6-(cyclobutoxy)-2-pyridyl]-2,6-difluoro-phenyl]-4-piperidyl]acetic acid] | < 0.2
O=C(O)CCCOc1c(F)cc(-c2ccc(F)c(OCC3CC3)c2)cc1F [Example 527, 4-(3′-cyclopropylmethoxy-3,5,4′-trifluoro-biphenyl-4-yloxy)-butyric acid] | < 0.2
Cc1cc(-c2cc(F)c(C(C)CCCC(=O)O)c(F)c2)nc(OC2CCC2)n1 (stereo not drawn) [Example 418, 5-[4-(2-cyclobutoxy-6-methyl-pyrimidin-4-yl)-2,6-difluoro-phenyl]-hexanoic acid] | < 0.2
COCCCOc1cccc(-c2cc(F)c(N3CCC(CC(=O)O)C3)c(F)c2)n1 (stereo not drawn) [Example 595, (1-{2,6-difluoro-4-[6-(3-methoxy-propoxy)-pyridin-2-yl]-phenyl}-pyrrolidin-3-yl)-acetic acid] | 0.2 to 2
CN(CCCC(=O)O)c1c(F)cc(-c2cccnc2OC2CCC2)cc1F [Example 206, 4-{[4-(2-cyclobutoxy-pyridin-3-yl)-2,6-difluoro-phenyl]-methyl-amino}-butyric acid] | < 0.2
O=C(O)CCCOc1c(F)cc(-c2cccc(SC3CCC3)c2)cc1F [Example 409, 4-(3′-cyclobutylsulfanyl-3,5-difluoro-biphenyl-4-yloxy)-butyric acid] | < 0.2
O=C(O)CC1CCN(c2c(F)cc(-c3nccc(Oc4cccc(F)c4)n3)cc2F)CC1 [Example 607, 2-[1-[4-[4-(3-fluorophenoxy)pyrimidin-2-yl]-2,6-difluoro-phenyl]-4-piperidyl]acetic acid] | < 0.2
CCCOc1cncc(-c2cc(F)c(N3CCC(CC(=O)O)C3)c(F)c2)n1 (stereo not drawn) [Example 495, 2-{1-[2,6-difluoro-4-(6-propoxy-pyrazin-2-yl)phenyl]pyrrolidin-3-yl}acetic acid] | < 0.2
CN(Cc1cc(O)no1)c1ccc(-c2cccc(OC3CCC3)n2)cc1 [Example 417, 5-({[4-(6-cyclobutoxy-pyridin-2-yl)-phenyl]-methyl-amino}-methyl)-isoxazol-3-ol] | < 0.2
O=C(O)CC1CCN(c2c(F)cc(-c3cccc(C4CCCC4)n3)cc2F)CC1 [Example 317, 2-[1-[4-(6-cyclopentyl-2-pyridyl)-2,6-difluoro-phenyl]-4-piperidyl]acetic acid] | 0.2 to 2
COc1cncc(-c2cc(F)c(N3CCC(CC(=O)O)C3)c(F)c2)n1 (stereo not drawn) [Example 584, {1-[2,6-difluoro-4-(6-methoxy-pyrazin-2-yl)-phenyl]-pyrrolidin-3-yl}-acetic acid] | 0.2 to 2
Cc1cccc(-c2cc3c(-c4cc(F)c(N5CCC(CC(=O)O)CC5)c(F)c4)cccc3s2)c1 [Example 616, {1-[2,6-difluoro-4-(2-m-tolyl-benzo[b]thiophen-4-yl)-phenyl]-piperidin-4-yl}-acetic acid] | 0.2 to 2
O=C(O)CCCOc1ccc(-c2cccc(OC3CCC3)n2)cc1F [Example 538, 4-[4-(6-cyclobutoxy-pyridin-2-yl)-2-fluoro-phenoxy]-butyric acid] | < 0.2
CC1(C)Cc2cc(F)cc(-c3cc(F)c(OCCCC(=O)O)c(F)c3)c2N1 [Example 266, 4-[2,6-difluoro-4-(5-fluoro-2,2-dimethyl-2,3-dihydro-1H-indol-7-yl)-phenoxy]-butyric acid] | 0.2 to 2
